Reference: patent US11142525B2 (Pfizer Inc., priority 2018, dated 2021)

Columns and labels:
[1] = target: human full-length recombinant HPK1 (Homo sapiens (Human), UniProt Q92918); assay: HPK1 biochemical enzyme assay, microfluidic mobility shift assay (MSA); settings: HPK1 mobility shift assay; read-out: HPK1 Enzyme Assay_Ki
[2] = system: phospho-SLP-76 (Ser376) in Jurkat cells; assay: Phospho-SLP-76 (Ser376) Homogeneous Time Resolved Fluorescence (HTRF) assay in Jurkat cells; assay type: cell-based; settings: Homo sapiens, Phospho-SLP-76 (Ser376) HTRF, anti-CD3 stimulation, read-out: SLP76 Assay_IC50
Method in brief: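 Phospho-SLP-76 in lysates was read by sandwich HTRF and IC50 derived by four-parameter nonlinear regression. Before lysis, cells had received compound for 30 min (11-point, 3-fold series from 10 μM, 0.1% DMSO), followed by anti-CD3 F(ab)2 complex (200 μg/mL, 15 min, 37 °C).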

human full-length recombinant HPK1, sequence (Q92918 whole entry): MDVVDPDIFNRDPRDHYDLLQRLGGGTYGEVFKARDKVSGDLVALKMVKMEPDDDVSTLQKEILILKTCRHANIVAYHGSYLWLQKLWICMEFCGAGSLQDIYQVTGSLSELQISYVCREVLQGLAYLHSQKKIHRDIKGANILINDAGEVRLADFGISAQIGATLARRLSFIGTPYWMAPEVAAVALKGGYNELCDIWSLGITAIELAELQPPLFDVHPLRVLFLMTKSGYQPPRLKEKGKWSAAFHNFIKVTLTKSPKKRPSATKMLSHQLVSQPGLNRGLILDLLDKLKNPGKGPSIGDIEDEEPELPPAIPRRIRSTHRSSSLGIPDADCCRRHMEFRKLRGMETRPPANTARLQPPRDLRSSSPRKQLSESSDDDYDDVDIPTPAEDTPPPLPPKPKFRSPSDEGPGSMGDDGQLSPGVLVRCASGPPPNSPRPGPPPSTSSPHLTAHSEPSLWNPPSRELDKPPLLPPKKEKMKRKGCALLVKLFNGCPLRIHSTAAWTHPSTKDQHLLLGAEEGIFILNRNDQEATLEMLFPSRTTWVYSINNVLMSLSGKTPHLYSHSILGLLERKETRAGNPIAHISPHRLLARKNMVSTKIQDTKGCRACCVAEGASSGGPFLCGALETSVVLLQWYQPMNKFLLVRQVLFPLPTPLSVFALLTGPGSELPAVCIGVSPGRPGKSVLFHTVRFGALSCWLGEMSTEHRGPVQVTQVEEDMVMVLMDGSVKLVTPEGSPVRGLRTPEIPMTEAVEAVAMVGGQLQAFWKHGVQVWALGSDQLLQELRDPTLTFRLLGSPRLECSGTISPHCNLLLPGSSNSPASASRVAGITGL

SMILES	Ki [1]	IC50 [2]
CCC(CC)n1cnnc1-c1cccc(N2Cc3c(cc(C4(C)CC4)nc3CN)C2=O)n1 [Example 126, 4-(aminomethyl)-6-(1-methylcyclopropyl)-2-{6-[4-(pentan-3-yl)-4H-1,2,4-triazol-3-yl]pyridin-2-yl}-2,3-dihydro-1H-pyrrolo[3,4-c]pyridin-1-one]	0.8 nM	114 nM
CCn1c(C)nnc1-c1cccc(N2Cc3c(cc(C4(C)CC4)nc3CN)C2=O)n1 [Example 127, 4-(aminomethyl)-2-[6-(4-ethyl-5-methyl-4H-1,2,4-triazol-3-yl)pyridin-2-yl]-6-(1-methylcyclopropyl)-2,3-dihydro-1H-pyrrolo[3,4-c]pyridin-1-one]	1.52 nM	435 nM
CCCn1c(C)nnc1-c1cccc(N2Cc3c(cc(C4(C)CC4)nc3CN)C2=O)n1 [Example 128, 4-(aminomethyl)-6-(1-methylcyclopropyl)-2-[6-(5-methyl-4-propyl-4H-1,2,4-triazol-3-yl)pyridin-2-yl]-2,3-dihydro-1H-pyrrolo[3,4-c]pyridin-1-one]	0.63 nM	874 nM
CCCn1c(C)nnc1-c1cccc(N2Cc3c(cc(N(C)CC)nc3CNC)C2=O)n1 [Example 130, 6-[ethyl(methyl)amino]-4-[(methylamino)methyl]-2-[6-(5-methyl-4-propyl-4H-1,2,4-triazol-3-yl)pyridin-2-yl]-2,3-dihydro-1H-pyrrolo[3,4-c]pyridin-1-one]	0.78 nM	201 nM
CCC(CC)n1c(C)nnc1-c1cccc(N2Cc3c(cc(N4CCC[C@@H]4C)nc3CNC)C2=O)n1 [Example 135, 4-[(methylamino)methyl]-2-{6-[5-methyl-4-(pentan-3-yl)-4H-1,2,4-triazol-3-yl]pyridin-2-yl}-6-[(2S)-2-methylpyrrolidin-1-yl]-2,3-dihydro-1H-pyrrolo[3,4-c]pyridin-1-one]	0.8 nM	> 10000 nM
CCCn1cnnc1-c1cccc(N2Cc3c(cc(N4[C@H](C)CC[C@H]4C)nc3CN)C2=O)n1 [Example 136, 4-(aminomethyl)-6-[(2R,5R)-2,5-dimethylpyrrolidin-1-yl]-2-[6-(4-propyl-4H-1,2,4-triazol-3-yl)pyridin-2-yl]-2,3-dihydro-1H-pyrrolo[3,4-c]pyridin-1-one]	0.73 nM	106 nM
CCN(c1cc2c(c(CN)n1)CN(c1cccc(-c3nncs3)n1)C2=O)C(C)C [Example 140, 4-(aminomethyl)-6-[ethyl(propan-2-yl)amino]-2-[6-(1,3,4-thiadiazol-2-yl)pyridin-2-yl]-2,3-dihydro-1H-pyrrolo[3,4-c]pyridin-1-one]	2.07 nM	464 nM
CCN(c1cc2c(c(CN)n1)CN(c1cccc(-c3nncn3CC)n1)C2=O)C(C)C [Example 141, 4-(aminomethyl)-6-[ethyl(propan-2-yl)amino]-2-[6-(4-ethyl-4H-1,2,4-triazol-3-yl)pyridin-2-yl]-2,3-dihydro-1H-pyrrolo[3,4-c]pyridin-1-one]	0.74 nM	122 nM
CCC(CC)n1cnnc1-c1cccc(N2Cc3c(cc(C4CC4)nc3CNC)C2=O)n1 [Example 142, 6-cyclopropyl-4-[(methylamino)methyl]-2-{6-[4-(pentan-3-yl)-4H-1,2,4-triazol-3-yl]pyridin-2-yl}-2,3-dihydro-1H-pyrrolo[3,4-c]pyridin-1-one]	0.52 nM	239 nM
CCN(c1cc2c(c(CN)n1)CN(c1cccc(-c3nncn3C(C)C)n1)C2=O)C(C)C [Example 145, 4-(aminomethyl)-6-[ethyl(propan-2-yl)amino]-2-{6-[4-(propan-2-yl)-4H-1,2,4-triazol-3-yl]pyridin-2-yl}-2,3-dihydro-1H-pyrrolo[3,4-c]pyridin-1-one]	0.47 nM	61 nM
CCCn1cnnc1-c1cccc(N2Cc3c(cc(N(CC)C(C)C)nc3CN)C2=O)n1 [Example 146, 4-(aminomethyl)-6-[ethyl(propan-2-yl)amino]-2-[6-(4-propyl-4H-1,2,4-triazol-3-yl)pyridin-2-yl]-2,3-dihydro-1H-pyrrolo[3,4-c]pyridin-1-one]	0.91 nM	106 nM
CCN(C)c1cc2c(c(CN)n1)CN(c1cccc(-c3nnc(C)n3C(C)C)n1)C2=O [Example 160]	0.48 nM	272 nM
CCCn1c(C)nnc1-c1cccc(N2Cc3c(cc(N(C)CC)nc3CN)C2=O)n1 [Example 161]	0.68 nM	217 nM
Cc1nnc(-c2cccc(N3Cc4c(cc(N5CCC[C@@H]5C)nc4CN)C3=O)n2)n1C(C)C [Example 162]	0.76 nM	136 nM
CCN(CC)c1cc2c(c(CN)n1)CN(c1cccc(-c3nnc(C)n3CC)n1)C2=O [Example 163]	0.88 nM	196 nM
CCC(CC)n1cnnc1-c1cccc(N2Cc3c(cc(N(CC)C(C)C)nc3CN)C2=O)n1 [Example 166]	0.5 nM	104 nM

The next lines start with the values.

Ki [1]	IC50 [2]	SMILES
0.1 nM	50 nM	C[C@@H]1CCCN1c1cc2c(c(CN)n1)CN(c1cccc(N3C(=O)OC[C@@H]3C)n1)C2=O [Example 125, 4-(aminomethyl)-2-{6-[(4S)-4-methyl-2-oxo-1,3-oxazolidin-3-yl]pyridin-2-yl}-6-[(2R)-2-methylpyrrolidin-1-yl]-2,3-dihydro-1H-pyrrolo[3,4-c]pyridin-1-one]
0.31 nM	93 nM	CCC(CC)n1cnnc1-c1cccc(N2Cc3c(cc(C4CC4)nc3CN)C2=O)n1 [Example 129, 4-(aminomethyl)-6-cyclopropyl-2-{6-[4-(pentan-3-yl)-4H-1,2,4-triazol-3-yl]pyridin-2-yl}-2,3-dihydro-1H-pyrrolo[3,4-c]pyridin-1-one]
0.11 nM	57 nM	CCN(C)c1cc2c(c(CNC)n1)CN(c1cccc(-c3nncn3CC)n1)C2=O [Example 131, 6-[ethyl(methyl)amino]-2-[6-(4-ethyl-4H-1,2,4-triazol-3-yl)pyridin-2-yl]-4-[(methylamino)methyl]-2,3-dihydro-1H-pyrrolo[3,4-c]pyridin-1-one]
0.2 nM	67 nM	C[C@H]1CCCN1c1cc2c(c(CN)n1)CN(c1cccc(N3C(=O)OC[C@@H]3C)n1)C2=O [Example 132, 4-(aminomethyl)-2-{6-[(4S)-4-methyl-2-oxo-1,3-oxazolidin-3-yl]pyridin-2-yl}-6-[(2S)-2-methylpyrrolidin-1-yl]-2,3-dihydro-1H-pyrrolo[3,4-c]pyridin-1-one]
0.28 nM	76 nM	C[C@@H]1CC[C@@H](C)N1c1cc2c(c(CN)n1)CN(c1cccc(N3C(=O)OC[C@@H]3C)n1)C2=O [Example 137, 4-(aminomethyl)-6-[(2R,5R)-2,5-dimethylpyrrolidin-1-yl]-2-{6-[(4S)-4-methyl-2-oxo-1,3-oxazolidin-3-yl]pyridin-2-yl}-2,3-dihydro-1H-pyrrolo[3,4-c]pyridin-1-one]
0.09 nM	> 10000 nM	CCC(CC)n1cnnc1-c1cccc(N2Cc3c(cc(N4CCC[C@@H]4C)nc3CNC)C2=O)n1 [Example 138, 4-[(methylamino)methyl]-6-[(2S)-2-methylpyrrolidin-1-yl]-2-{6-[4-(pentan-3-yl)-4H-1,2,4-triazol-3-yl]pyridin-2-yl}-2,3-dihydro-1H-pyrrolo[3,4-c]pyridin-1-one]
0.46 nM	266 nM	CC[C@@H](C)n1cnnc1-c1cccc(N2Cc3c(cc(C4(C)CC4)nc3CNC)C2=O)n1 [Example 139, 2-(6-{4-[(2R)-butan-2-yl]-4H-1,2,4-triazol-3-yl}pyridin-2-yl)-4-[(methylamino)methyl]-6-(1-methylcyclopropyl)-2,3-dihydro-1H-pyrrolo[3,4-c]pyridin-1-one]
0.09 nM	28 nM	CCC(CC)n1cnnc1-c1cccc(N2Cc3c(cc(N4CCC[C@H]4C)nc3CN)C2=O)n1 [Example 143, 4-(aminomethyl)-6-[(2R)-2-methylpyrrolidin-1-yl]-2-{6-[4-(pentan-3-yl)-4H-1,2,4-triazol-3-yl]pyridin-2-yl}-2,3-dihydro-1H-pyrrolo[3,4-c]pyridin-1-one]
< 0.05 nM	15 nM	CCC(CC)n1cnnc1-c1cccc(N2Cc3c(cc(N4CCC[C@H]4C)nc3CNC)C2=O)n1 [Example 144, 4-[(methylamino)methyl]-6-[(2R)-2-methylpyrrolidin-1-yl]-2-{6-[4-(pentan-3-yl)-4H-1,2,4-triazol-3-yl]pyridin-2-yl}-2,3-dihydro-1H-pyrrolo[3,4-c]pyridin-1-one]
0.06 nM	33 nM	CCC(CC)n1cnnc1-c1cccc(N2Cc3c(cc(N(C)C(C)C)nc3CN)C2=O)n1 [Example 150]
0.1 nM	14 nM	CCC(CC)n1cnnc1-c1cccc(N2Cc3c(cc(N4CCCC4(C)C)nc3CN)C2=O)n1 [Example 151]
0.12 nM	46 nM	CCC(CC)n1cnnc1-c1cccc(N2Cc3c(cc(N4CCC[C@@H]4C)nc3CN)C2=O)n1 [Example 152]
0.14 nM	65 nM	CCC(CC)n1cnnc1-c1cccc(N2Cc3c(cc(N(C)CC)nc3CN)C2=O)n1 [Example 153]
0.15 nM	151 nM	CCn1c(C)nnc1-c1cccc(N2Cc3c(cc(N4CCCC4(C)C)nc3CN)C2=O)n1 [Example 154]
0.16 nM	55 nM	CCCn1c(C)nnc1-c1cccc(N2Cc3c(cc(N4CCCC4(C)C)nc3CN)C2=O)n1 [Example 155]
0.19 nM	104 nM	Cc1nnc(-c2cccc(N3Cc4c(cc(N5CCC[C@H]5C)nc4CN)C3=O)n2)n1C(C)C [Example 156]
0.23 nM	85 nM	CCn1c(C)nnc1-c1cccc(N2Cc3c(cc(N4CCC[C@@H]4C)nc3CN)C2=O)n1 [Example 157]
0.38 nM	83 nM	CCn1c(C)nnc1-c1cccc(N2Cc3c(cc(N(C)C(C)C)nc3CN)C2=O)n1 [Example 158]
0.28 nM	114 nM	Cc1nnc(-c2cccc(N3Cc4c(cc(N(C)C(C)C)nc4CN)C3=O)n2)n1C(C)C [Example 165]
